Patent US20040235883A1, “Alkyl-substituted imidazopyridines for the treatment of gastrointestinal disorders” (priority 2001, published 2004)

Test system: pentagastrin-stimulated acid secretion of the perfused rat stomach
Test: Secretion-inhibiting action on the perfused rat stomach (pentagastrin-stimulated acid secretion, intraduodenal administration in vivo)
Conditions: anesthetized CD rat, female, pentagastrin 1 μg/kg i.v. infusion
Source text: Testing of the Secretion-Inhibiting Action on the Perfused Rat Stomach
In Table A which follows, the influence of the compounds according to the invention on the pentagastrin-stimulated acid secretion of the perfused rat stomach after intraduodenal administration in vivo is shown.
The abdomen of anesthetized rats (CD rat, female, 200-250 g; 1.5 g/kg i.m. urethane) was opened after tracheotomy by a median upper abdominal incision and a PVC catheter was fixed transorally in the esophagus and another via the pylorus such that the ends of the tube just projected into the gastric lumen. The catheter leading from the pylorus led outward into the right abdominal wall through a side opening.
After thorough rinsing (about 50-100 ml), warm (37° C.) physiological NaCl solution was continuously passed through the stomach (0.5 ml/min, pH 6.8-6.9; Braun-Unita I). The pH (pH meter 632, glass electrode EA 147; φ=5 mm, Metrohm) and, by titration with a freshly prepared 0.01 N NaOH solution to pH 7 (Dosimat 665 Metrohm), the secreted HCl were determined in the effluent in each case collected at an interval of 15 minutes.
The gastric secretion was stimulated by continuous infusion of […] (=1.65 ml/h) of i.v. pentagastrin (left femoral vein) about 30 min after the end of the operation (i.e. after determination of 2 preliminary fractions). […]

Molecule | Inhibition of acid secretion (%) (dose 1 μmol/kg i.d.) | Inhibition of acid secretion (%) (dose 0.3 μmol/kg i.d.)
Cc1nc2c3c(ccn2c1C)[C@H](C)[C@H](O)CN3 [Example 8, (7S,8S,9R)-8-Hydroxy-2,3,7-trimethyl-7,8,9,10-tetrahydroimidazo[1.2-h][1.7]naphthyridine] | 93 | 
(7S,8S,9R)-7-Cyanomethyl-8-hydroxy-2,3-dimethyl-7,8,9,10-tetrahydroimidazo[1.2h]-[1.7]naphthyridine [Example 9] |  | 52
